Data on 1 compound can be found in article PMC12646587, “Advanced cardiotoxicity profiling using field potential imaging with UHD-CMOS-MEA in human iPSC-derived cardiomyocytes” (Toxicological Sciences, 2025).

The term IC50 denotes the concentration needed to halve the response being measured.

For data set [1], the system named is human iPSC-derived cardiomyocytes. Description: Field potential imaging (FPI) with UHD-CMOS-MEA, acute drug treatment. The format is cell-based. As for the experimental part: Cryopreserved iCell Cardiomyocytes (FUJIFILM Cellular Dynamics, Inc.) were handled according to the supplier’s instructions. Cells were thawed in a 37 °C water bath for approximately 3 min and resuspended in iCell Thawing Medium to prepare a cell suspension at a final concentration of 1 × 10^7 cells/ml. A total of 10 µl of the cell suspension (100,000 cells per chip) was seeded directly onto the fibronectin-coated electrode area of each chip. Chips were incubated at 37 °C for 1 h to allow cell attachment, after which 1 ml of maintenance medium was gently added. […] Thereafter, medium exchanges were performed twice weekly by replacing half the medium volume.
Compounds were dissolved in culture medium containing 0.1% DMSO and administered cumulatively at increasing concentrations. Drug solutions were applied directly to the culture wells, and measurements were initiated 30 min after administration. […] All recordings were performed under spontaneous beating conditions, with no external pacing applied.
Recordings were performed at a sampling rate of 2 kHz, with a 2-min recording duration per condition. Data acquisition was controlled via proprietary software (Sony Semiconductor Solutions), and all raw signals were stored for offline analysis. All experiments were conducted in a humidified environment at 37 °C with 5% CO2, ensuring physiological conditions during both drug exposure and recording.
Spikes from hiPSC-derived cardiomyocytes were initially detected at each electrode using a voltage threshold of ±100 µV via BinViewer software (SCREEN Holdings Co., Ltd, Japan). The resulting spike data were then processed using a custom MATLAB (MathWorks, Natick, MA) script to perform beat detection. Firing count histograms were generated using a bin size of 0.5 ms, and peak detection within these histograms identified the timing and propagation duration of beats across the electrode array. For each electrode, the maximum spike amplitude and its corresponding peak timing were calculated to generate heat maps of field potential amplitude and activation timing. […]

Data set [2] deals with cardiomyocytes. Conditions: FPDc10 (10% prolongation of FPDc); ref Nozaki et al. 2017; cited from earlier work.
In data set [3] the test system is NaV. Particulars: ref Yao and Tseng 1997; cited from earlier work.
The conditions of data set [4]: ref Lee et al. 2025; cited from earlier work.
The test system of data set [5] is hERG. Conditions: read-out: IC50 hERG; ref Busch et al. 1998; cited from earlier work. In general terms: Block of hERG is tested as a sign of cardiac risk.
The test system of data set [6] is human iPSC-derived cardiomyocytes. As to the kind of experiment: PCA of beat parameters: cardiotoxicity risk and mechanism classification. The format is cell-based. As for the experimental part: Each parameter set was evaluated for its ability to separate cardiotoxic and non-cardiotoxic compounds while maintaining minimal variance among negative controls. […] To assess cardiotoxicity, PCA scores of test compounds were plotted in the PC space, and their positions were compared with the SD-defined zones of the negative control group. Risk levels were classified as follows: Low risk (within 1 SD), medium risk (between 1 and 2 SD), and high risk (beyond 2 SD). Dose-dependent cardiotoxicity potential was estimated based on displacement from the negative control cluster.
To establish a risk classification framework, the standard deviation (SD) range of negative control compounds in PCA space was used to define 3 zones: Within the SD range (low risk), between 1 and 2 SD (medium risk), and beyond 2 SD (high risk) (Fig. 6B). Risk levels derived from PCA distribution were compared with IC50 and Cmax values reported for each compound and associated ion channels (Table 5).

Data set [7] has as its system CaV. Conditions: ref Yao and Tseng 1997; cited from earlier work.
For data set [8], the system named is hiPSC-CMs. Description: Conventional MEA recording (16-electrode Axion Maestro), acute exposure. It counts as cell-based, human. Conditions: acute. As for the experimental part:
To enable comparison with the UHD-CMOS-MEA recordings, conventional extracellular field potential recordings were performed using 16-electrode MEA plates on a commercially available MEA system (Axion Maestro, Axion Biosystems), in accordance with the general principles of the CiPA initiative. hiPSC-CMs were cultured and maintained on the MEA plates under spontaneous beating conditions at 37 °C. Recordings were conducted after 10 to 14 DIV, and data acquisition and beat detection were performed using the built-in algorithms of the AxIS software (Axion Biosystems), without the use of external pacing. […] Each compound was applied under acute exposure conditions, and field potential recordings were obtained for 30 min following drug administration.
To evaluate the measurement capabilities of a conventional MEA system, the same set of 7 compounds was tested using the 16-electrode Axion Maestro platform.

Data set [9] relates to IKs. Further details: method as in Davies et al. 1996. Particulars: ref Davies et al. 1996; cited from earlier work.
Data set [10] deals with cardiomyocytes. Conditions: CTD90 ↑; ref Lu et al. 2019; cited from earlier work.
Where [11] appears, read: acute, statistically significant change vs before.

`CN1CCN(CCCCN2C(=O)CN(/N=C/c3ccc(-c4ccc(Cl)cc4)o3)C2=O)CC1` [Azimilide]: in [1] (setting [11]), the “IBI (interbeat interval)” value was “increased and ↑”; the “IBI STV” value was “significantly elevated and ↑”. The “BR (beat rate)” value in data set [1] (acute, statistically significant change vs before, arrows = direction, – = none) was “decreased and ↓”. For the same compound, the “FPI (concentration at which changes were detected)” value in data set [1] (changed parameters in brackets in each cell) is listed as 1 (BR, IBI, IBI STV) μM. Also, in data set [2], the MEA assay was 0.129 ([Nozaki et al. 2017]) (FPDc10) µM. Also, the IC50 in [3] was 19 µM. For the same compound, the “Cmax Free” value in data set [4] was 0.07 ([Lee et al. 2025]) μM. The IC50 in [5] is 5.2 µM. The “FPI PCA (concentration at which changes were detected)” value in data set [6] amounted to 1 µM. In addition, the concentration for half-maximal inhibition (IC50) in data set [7] is 17.8 µM. Moreover, in data set [8], the IBI result is “prolongation”, the beat frequency entry is on record as “consistent reductions”, the “field potential (spike) amplitude” value is listed as “decreasing trend” and the “magnitude of change in propagation area” value is recorded as “less than 5%”. In data set [8], the propagation area entry is “statistically significant reduction”. Also, the IC50 in [9] was 0.7 µM. Also, in data set [10], the HCA assay is 1.0 ([Lu et al. 2019]) (CTD90 ↑) µM.
